Measured values as given in patent publication US8835134B2, “Cycloastragenol monoglucoside, preparation, pharmaceutical composition and application thereof” (Tianjin Institute of Pharmaceutical Research, priority 2007, dated 2014).

Tested on: anesthetized open-chest dogs
Assay: Hemodynamics of anesthetized open-chest dogs, intravenous infusion
Format: in vivo, mongrel dogs
Conditions: 0.3 mg/kg iv
Description: The animals were anesthetized by intravenous injection of 30 mg/kg sodium pentobarbital, tracheally intubated, and mechanically ventilated with positive air pressure. Left thoracotomy was performed through the fourth intercostal space and the heart was suspended in a pericardial cradle, the aortic root was isolated and a probe of blood flow meter (12 or 14 mm in diameter) was fixed to measure the aortic blood flow as a representation of cardiac output (CO), the circumflex branch of left coronary artery was isolated and a probe of blood flow meter (2 or 2.5 mm in diameter) was fixed to measure the coronary blood flow (CBF). A polyethylene catheter filled with heparin physiological saline was inserted through cardiac apex into the left ventricle to measure the left ventricular pressure (LVP) and left ventricular end-diastolic pressure (LVEDP), Peak positive and peak negative first derivatives of the LVP (+ LVdp/dt and − LVdp/dt) were calculated with the Acknowledge software. The systolic blood pressure (SBP), diastolic blood pressure (DBP) and mean arterial pressure (MAP) were measured by polyethylene catheter via the femoral artery, ECG □ was measured by a AC-601G ECG amplifier. The above-mentioned analog signal was input into a data acquisition workstation (MP100, BIOPAC Systems, USA) to a computer running Acknowledge (version 3.7.1).
After surgery, various indexes before administration were recorded until the indexes were stable, and then intravenous infusion administration was conducted. Thirty dogs were divided into five groups (six dogs in each group), the experiment groups were given 0.15, 0.3, 0.6 mg/kg of ASP-[…] respectively, the normal control group was given 1 ml/kg of solvent, and the positive control group was given 0.3 mg/kg of astragaloside IV. The delivery volumes were 15 ml for each dog was and the delivery velocity was 1 ml/min. The indexes were recorded at 5, 10, 15, 20, 30, 45, 60, 90 and 120 mins after drug administration. At the end of experiment, the hearts were excised and weighted. The myocardial blood flow for per hectogram (CF), coronary resistance (CR), cardiac index (CI), left ventricular work (LVW) and total peripheral resistance (TPR) were calculated according to the following formulae: CF=CBF×[…]/heart weight CR=MAP/CF CI=CO/0.11×(body weight)^2/3 LVW=CO×(MAP−5)×1.052×0.0136 TPR=MAP×79.92/CO
Data are expressed as mean±SD ( x±s), the paired t-test was used to compare the significance between before and after administration, the unpaired t-test was adopted for comparison between groups.

## CC(C)(O)[C@@H]1CC[C@](C)([C@H]2[C@@H](O)C[C@@]3(C)[C@@H]4C[C@H](O[C@@H]5O[C@H](CO)[C@@H](O)[C@H](O)[C@H]5O)[C@H]5C(C)(C)[C@@H](O[C@@H]6OC[C@@H](O)[C@H](O)[C@H]6O)CC[C@@]56C[C@@]46CC[C@]23C)O1 [astragaloside IV, reference compound]
30 min after administration
  TPR: 5430 ± 1302 dyn · s/cm^5
  TPR change vs before administration: (206 ± 718) dyn · s/cm^5
  dp/dt: 1140 ± 92 mmHg/s
  dp/dt change vs before administration: (85 ± 84) mmHg/s
  −dp/dt: −807 ± 124 mmHg/s
  −dp/dt change vs before administration: (28 ± 160) mmHg/s
45 min after administration
  CF: 54.0 ± 15.0 ml/min/100 g
  CF change vs before administration: (−2.9 ± 7.7) ml/min/100 g
  CI: 2.08 ± 0.52 L/min/m^2
  CI change vs before administration: (−0.06 ± 0.19) L/min/m^2
  CO: 1.17 ± 0.32 L/min
  CO change vs before administration: (−0.03 ± 0.10) L/min
  CR: 1.44 ± 0.50 mmHg/ml/min/100 g
  CR change vs before administration: (0.04 ± 0.25) mmHg/ml/min/100 g
  LVEDP: 0.9 ± 2.1 mmHg
  LVEDP change vs before administration: (−1.55 ± 1.42) mmHg
  LVP: 98 ± 10 mmHg
  LVP change vs before administration: (−4.5 ± 11.7) mmHg
  LVW: 1.14 ± 0.40 kg · m
  LVW change vs before administration: (−0.07 ± 0.11) kg · m
  TPR: 5301 ± 1638 dyn · s/cm^5
  TPR change vs before administration: (77 ± 552) dyn · s/cm^5
  dp/dt: 1124 ± 163 mmHg/s
  dp/dt change vs before administration: (69 ± 73) mmHg/s
  −dp/dt: −809 ± 137 mmHg/s
  −dp/dt change vs before administration: (26 ± 159) mmHg/s
60 min after administration
  CF: 53.7 ± 18.1 ml/min/100 g
  CF change vs before administration: (−3.3 ± 5.1) ml/min/100 g
  CI: 2.10 ± 0.53 L/min/m^2
  CI change vs before administration: (−0.05 ± 0.11) L/min/m^2
  CO: 1.18 ± 0.34 L/min
  CO change vs before administration: (−0.02 ± 0.06) L/min
  CR: 1.51 ± 0.64 mmHg/ml/min/100 g
  CR change vs before administration: (0.10 ± 0.23) mmHg/ml/min/100 g
  LVEDP: 0.8 ± 1.7 mmHg
  LVEDP change vs before administration: (−1.57 ± 1.39) mmHg
  LVP: 98 ± 11 mmHg
  LVP change vs before administration: (−5.3 ± 15.3) mmHg
  LVW: 1.16 ± 0.47 kg · m
  LVW change vs before administration: (−0.05 ± 0.09) kg · m
  TPR: 5278 ± 1714 dyn · s/cm^5
  TPR change vs before administration: (54 ± 458) dyn · s/cm^5
  dp/dt: 1098 ± 192 mmHg/s
  dp/dt change vs before administration: (43 ± 77) mmHg/s
  −dp/dt: −788 ± 126 mmHg/s
  −dp/dt change vs before administration: (48 ± 177) mmHg/s
90 min after administration
  CF: 57.4 ± 19.0 ml/min/100 g
  CF change vs before administration: (0.4 ± 9.5) ml/min/100 g
  CI: 2.15 ± 0.52 L/min/m^2
  CI change vs before administration: (0.01 ± 0.08) L/min/m^2
  CO: 1.21 ± 0.32 L/min
  CO change vs before administration: (0.00 ± 0.05) L/min
  CR: 1.43 ± 0.83 mmHg/ml/min/100 g
  CR change vs before administration: (0.02 ± 0.51) mmHg/ml/min/100 g
  LVEDP: 1.4 ± 0.5 mmHg
  LVEDP change vs before administration: (−0.97 ± 0.77) mmHg
  LVP: 99 ± 15 mmHg
  LVP change vs before administration: (−4.2 ± 18.7) mmHg
  LVW: 1.14 ± 0.44 kg · m
  LVW change vs before administration: (−0.07 ± 0.08) kg · m
  TPR: 4952 ± 1517 dyn · s/cm^5
  TPR change vs before administration: (−272 ± 349) dyn · s/cm^5
  dp/dt: 1100 ± 160 mmHg/s
  dp/dt change vs before administration: (45 ± 73) mmHg/s
  −dp/dt: −762 ± 139 mmHg/s
  −dp/dt change vs before administration: (74 ± 184) mmHg/s
120 min after administration
  CF: 55.6 ± 19.7 ml/min/100 g
  CF change vs before administration: (−1.4 ± 11.1) ml/min/100 g
  CI: 2.14 ± 0.50 L/min/m^2
  CI change vs before administration: (0.00 ± 0.06) L/min/m^2
  CO: 1.20 ± 0.30 L/min
  CO change vs before administration: (0.00 ± 0.03) L/min
  CR: 1.51 ± 0.82 mmHg/ml/min/100 g
  CR change vs before administration: (0.11 ± 0.41) mmHg/ml/min/100 g
  LVEDP: 1.8 ± 0.8 mmHg
  LVEDP change vs before administration: (−0.66 ± 0.47) mmHg
  LVP: 97 ± 14 mmHg
  LVP change vs before administration: (−5.5 ± 19.3) mmHg
  LVW: 1.17 ± 0.45 kg · m
  LVW change vs before administration: (−0.04 ± 0.05) kg · m
  TPR: 5046 ± 1440 dyn · s/cm^5
  TPR change vs before administration: (−178 ± 394) dyn · s/cm^5
  dp/dt: 1088 ± 182 mmHg/s
  dp/dt change vs before administration: (33 ± 59) mmHg/s
  −dp/dt: −748 ± 167 mmHg/s
  −dp/dt change vs before administration: (88 ± 215) mmHg/s
Before administration
  CF: 57 ± 16.1 ml/min/100 g
  CI: 2.14 ± 0.52 L/min/m^2
  CO: 1.20 ± 0.32 L/min
  CR: 1.40 ± 0.49 mmHg/ml/min/100 g
  LVEDP: 2.4 ± 1.1 mmHg
  LVP: 103 ± 12 mmHg
  LVW: 1.21 ± 0.44 kg · m
  TPR: 5224 ± 1465 dyn · s/cm^5
  dp/dt: 1055 ± 157 mmHg/s
  −dp/dt: −836 ± 194 mmHg/s
Vs pre-administration
  Heart rate: decreased slightly
  blood pressure: no significant change
Within 120 min
  CF and CR: no significant changes
